Assay results reported in paper PMC10644720 (Frontiers in Pharmacology, 2023).

Legend:
human washed platelets = assay: Platelet ROS release assay (DCFH-DA); type: cell-based; settings: luteolin 25 μM, BAY61-3606 63 nM
Method: The assay was performed as previously reported with minor modifications ([Arthur et al., 2012]; [Ye et al., 2020]). Briefly, WPs (500 × 10^9/L) were labeled with 5 μM Fluo-3AM (Cat No. IF0150; Solarbio) or 10 μM DCFH-DA (Cat No. D6883; Sigma, St. Louis, MO, United States) at 37°C for 30 min protected from light. […] In addition, 1 mM CaCl2 and collagen or convulxin were added to start the reaction. […] A ROS probe via a fluorescent enzyme marker was added. O2 ^− and H2O2 were measured using 2 μM Amplex Red (Cat No. ST010; Beyotime Institute of Biotechnology, Shanghai, China) or 2 μM Dihydroethidium (DHE, Cat No. S0063; Beyotime Institute of Biotechnology, Shanghai, China). O2 ^− and H2O2 were analyzed using a Fluoroskan Ascent fluorometer (Thermo Fisher, Waltham, Massachusetts, United States).

NOXs = assay: NADPH oxidase (NOX) activity assay in platelet lysate; type: cell-based, human; settings: convulxin (5 ng/mL)- and collagen (10 μg/mL)-induced; VAS2870 10 μM
Method: MDA, SOD, GPx, and NADPH oxidase activity were measured as previously described ([Krotz et al., 2002]; [Paul et al., 2019]; [Pan et al., 2021]). After incubation and activation, the reaction was stopped by adding 10 mM EGTA. The platelets were pelleted by centrifugation at 20,000 × g for 10 min at 4°C and resuspended in Tyrode’s buffer with 0.1% phosphatase and protease inhibitors (Cat No. 04906837001, Roche Applied Science, Penzberg, Germany; Cat No. P-8340, Sigma, St. Louis, MO, United States). The platelets were disrupted by passing them 10 times through a 29-gauge needle, followed by centrifugation at 2000 × g for 10 min at 4°C to separate the supernatant and precipitate. The detection of MDA, SOD, and GPx in the supernatant was performed according to the kit’s instructions for SOD (Cat No. BC0170, Solarbio Life Science, Beijing, China), MDA (Cat No. S0131S, Beyotime Institute of Biotechnology, Shanghai, China) and GPx (Cat No. S0056, Beyotime Institute of Biotechnology, Shanghai, China). In order to determine NADPH oxidase (NOX) activity, platelet lysate (12.5 μg) was incubated with 10 µM lucigenin and 0.5 mM NADPH at 37°C in the dark. The absorbance values were detected at 450 nm using a spectrophotometer Multiskan FC (ThermoFisher Scientific Inc., Waltham, MA, United States). Protein content was determined by the Bradford method.

[1] = test system: mesenteric artery thrombosis; assay: Ferric chloride-induced mesenteric thrombosis in mice; type: in vivo, C57BL/6 mice; settings: luteolin 35 μM/kg or aspirin 0.5 mM/kg i.p., 30 min before FeCl3
Method: A method reported in the literature was used to observe mesenteric artery thrombosis in mice ([Bonnard and […], 2015]). […] The mice were anesthetized by an intraperitoneal injection of pentobarbital (45 mg/kg). They were given an intraperitoneal injection of DMSO, luteolin, or aspirin. They were also given an orbital vein injection of 5 μg/kg rhodamine (Cat No. 83697-250 MG; Sigma-Aldrich, St. Louis, MO, United States) ([Bonnard and […], 2015]), respectively. The mesenteric vessels were exposed by opening the abdominal cavity, and small mesenteric arteries with a diameter of approximately 150-250 μm were selected under the microscope. […] During thrombosis, images were taken every 1 min for the first 10 min and every 5 min after 10 min using an MSHOT MD50 camera (Micro Shot Technology Ltd., Guangzhou, China) and an Olympus ix73 microscope (Olympus Corp., Shinjuku, Japan). […] The size of the thrombus formation was calculated using ImageJ software.

Tail bleeding in mice = type: in vivo, C57BL/6 mice; settings: luteolin 35 μM/kg or aspirin i.p., 30 min after injection; vs DMSO
Method: The tail break hemorrhage experiment in mice was performed as previously reported, with slight modifications ([Liu et al., 2012]). […] Before the experiment, the mouse tails were immersed in saline for 3 min at 37°C. Then, 30 min after injection, the tails were quickly cut off using a surgical knife blade and placed in saline at 37°C. The cutting site was 5 mm from the end of the tail tip. The bleeding time of the broken tails was observed and recorded.

COc1ccc(-c2cc3nccn3c(Nc3ncccc3C(N)=O)n2)cc1OC [BAY61-3606, reference compound]
effect on platelet ROS release (human washed platelets; collagen (10 μg/mL)-induced): decreasing levels
effect on platelet ROS release (human washed platelets; convulxin (5 ng/mL)-induced): decreased

c1ccc(Cn2nnc3c(Sc4nc5ccccc5o4)ncnc32)cc1 [VAS2870, reference compound]
NOXs activity (NOXs): significantly decreased

CC(=O)Oc1ccccc1C(=O)O [aspirin, reference compound]
time of clot obstruction of blood vessels [1]: significantly prolong
time of initial thrombus formation [1]: Neither the 0.5 mM/kg aspirin group or 35 μM/kg luteolin group prolonged
tail bleeding time (Tail bleeding in mice): significantly prolonged
